One data set deals with T1, recombinant human GSK-3β (Homo sapiens, UniProt P49841).
T1 construct: purchased
Kind of data set: GSK-3β inhibition (luciferin kinase detection). The data set is classed as biochemical. The protocol:
Add ATP and substrate polypeptide to the reaction template for GSK-3β under the most suitable enzyme reaction system and conditions, let the enzyme react with ATP and substrate polypeptide, and use luciferin kinase detection technology to detect enzyme activity. All the compounds to be tested were prepared by adding DMSO to a solution with a concentration of 10^−2 mol/L and diluted with PBS to the required concentration when used; the purchased GSK-3β was diluted from 1600 ng/μL to 2 ng/μL, ready for use.

The target of data set [1] is T2, AChE (Electrophorus electricus, UniProt O42275). Kind of data set: biochemical. More on the design: species or system electric eel. The protocol: The inhibitory activities of the compounds on AChE were determined by an Ellman assay. First, 20 μL of phosphate buffer was added to a 96-well plate. Then, compounds of different concentrations (20 μL), 100μL of 1mM DTNB, and 40 μL of AChE solution (2 U/mL) were added successively. The plate was incubated at 37 °C for 15 min. Briefly, 20 μL of acetylthiocholine iodide (1 mM) was added to the mixed solution. The plate was incubated at 25 °C for 20 min. The reaction was terminated by adding 3% SDS to each well. […] The inhibition of each compound was calculated using the formula (1 − Ai/Ac) × 100, where Ai and Ac represent the absorbance of the reaction mixture in the presence and absence of inhibitors, respectively. The IC50 values of all target compounds were calculated by using Graph Pad Prism 9.5.

In a further data set the test system is GSK-3β. To be noted: cited from earlier work.
Data set [2] deals with T2, AChE. The arrangement: method as in PMID 34024109. To be noted: value of the design leads (abstract, Figure 2); cited from earlier work.
In a further data set the test system is HepG2 cells. Kind of data set: Hepatotoxicity on HepG2 cells (MTT assay). The format is cell-based. To be noted: concentrations of up to 20 μM. The protocol:
HepG2 cells were cultured in DMEM supplemented with 10% FBS and 100 U/mL of penicillin-streptomycin (Thermo, Waltham, MA, USA) at 37 °C in a humidified atmosphere containing 5% CO2.
HepG2 cells were seeded in 96-well plates at a density of 2 × 10^4 cells per well. After 24 h, different concentrations of tacrine or compound 18a (1 μM, 5 μM, 10 μM, and 20 μM) and DMSO were added to the wells. MTT assay was performed, and the survival percentage of cells was calculated.
Background: Formazan colour is commonly taken as a measure of viable cells.

The subject of data set [3] is SH-SY5Y neuroblastoma cells. Kind of data set: Cytotoxicity on SH-SY5Y cells (MTT assay). To be noted: concentrations of up to 25 μM. The data set is classed as cell-based, human. The protocol: SH-SY5Y cells were cultured in Dulbecco’s modified Eagle medium (DMEM) with F12 (KeyGEN BioTECH, Nanjing, China), supplemented with 10% (v/v) fetal bovine serum (FBS) (Sen Bei Jia) and antibiotics (penicillin streptomycin) (KeyGEN BioTECH, Nanjing, China). Cells were kept at 37 °C and 5% CO2 in a humidified atmosphere in a cell culture incubator and passaged twice a week.
The cytotoxicity assay on SH-SY5Y cells was the same as in our previous studies. Cells were seeded in a 96-well plate, and the medium was removed after 24 h. Compound 18a (3.125 μM, 6.25 μM, 12.5 μM, and 25 μM) was added to each well. After treatment for 24 h, 10 μL of 3-(4,5-dimethyl-2-thiazolyl)-2,5-diphenyl-2-H-tetrazolium bromide was added to each well. After incubation at 37 °C for 4 h, 100 μL of DMSO was added, and the absorbance of the mixture was determined at 590 nm using a microplate reader (FC/K3, Thermo, Waltham, MA, USA). We used the formula Ae/Ab 100% to calculate the survival rate, where Ae and Ab represent the absorbance in the presence and absence of the tested drugs. Each experiment was carried out three times in total.

For data set [4], the target named is T2, AChE. Kind of data set: Kinetic study of AChE inhibition (Lineweaver–Burk). The format is biochemical. To be noted: Lineweaver–Burk plots; 0.02, 0.04, 0.08 μM inhibitor. The protocol: In 96-well plates, 20μL of PBS, compound 18a (20 μL) with three final concentrations (0.02 μM, 0.04 μM, and 0.08 μM), 20 μL of acetylthiocholine iodide (50–300 μM), and 40 μL of AChE (2 U/mL) were added successively. After incubation at 37 °C for 15 min, 100 μL of DTNB (1 mM) was added. A microplate reader (Thermo, Waltham, MA, USA) was used to record the absorbance at 405 nm. Lineweaver–Burk reciprocal plots were created by graphing 1/V vs. 1/[S] by using GraphPad Prism 9.5.

The mark [5] stands for this setting: recombinant human GSK-3β, mean of three independent determinations, read-out: IC50 (μM) ± SEM GSK-3β.
The mark [6] stands for this setting: AChE from electric eel, mean of three independent determinations, read-out: IC50 (μM) ± SEM AChE.

“Also recorded” adds a separate entry of the source. Read-outs that look alike come from different tables or passages of the source.

Usually IC50 stands for the point on the concentration scale where inhibition reaches its midpoint.

T1 sequence (P49841 whole entry): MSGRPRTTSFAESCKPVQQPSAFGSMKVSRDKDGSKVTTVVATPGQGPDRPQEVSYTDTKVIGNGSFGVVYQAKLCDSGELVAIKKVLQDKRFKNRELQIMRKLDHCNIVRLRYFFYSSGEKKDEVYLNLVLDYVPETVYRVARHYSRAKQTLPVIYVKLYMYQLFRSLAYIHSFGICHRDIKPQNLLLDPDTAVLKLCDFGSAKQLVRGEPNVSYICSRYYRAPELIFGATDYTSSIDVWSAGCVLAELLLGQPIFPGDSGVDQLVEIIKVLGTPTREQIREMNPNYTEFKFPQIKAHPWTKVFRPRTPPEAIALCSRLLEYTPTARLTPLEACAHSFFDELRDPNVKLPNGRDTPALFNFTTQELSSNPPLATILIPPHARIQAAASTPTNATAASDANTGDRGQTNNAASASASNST
T2 sequence (O42275 24-633): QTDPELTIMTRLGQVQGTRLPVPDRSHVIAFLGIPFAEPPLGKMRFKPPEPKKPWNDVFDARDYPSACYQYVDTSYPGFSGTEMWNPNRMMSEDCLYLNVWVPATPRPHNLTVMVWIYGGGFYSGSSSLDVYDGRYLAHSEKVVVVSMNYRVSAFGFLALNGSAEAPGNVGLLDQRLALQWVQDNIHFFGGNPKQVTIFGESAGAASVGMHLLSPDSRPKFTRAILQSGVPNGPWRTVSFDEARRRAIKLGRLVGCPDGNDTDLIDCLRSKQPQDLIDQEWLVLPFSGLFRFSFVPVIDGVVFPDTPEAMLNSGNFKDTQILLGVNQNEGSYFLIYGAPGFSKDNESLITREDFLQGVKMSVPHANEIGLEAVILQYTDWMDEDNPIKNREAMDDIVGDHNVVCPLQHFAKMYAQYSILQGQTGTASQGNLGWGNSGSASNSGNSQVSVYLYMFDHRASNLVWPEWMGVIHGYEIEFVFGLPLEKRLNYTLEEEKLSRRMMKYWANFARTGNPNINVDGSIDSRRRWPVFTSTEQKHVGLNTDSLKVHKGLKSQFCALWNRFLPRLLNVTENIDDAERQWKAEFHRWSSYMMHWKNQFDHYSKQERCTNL

For `Cn1c(SCCNc2c3c(nc4cc(Cl)ccc24)CCCC3)nc(-c2ccncc2F)cc1=O` [Compound 16d, 2-((2-((6-Chloro-1,2,3,4-tetrahydroacridin-9-yl)amino)ethyl)thio)-6-(3-fluoropyridin-4-yl)-3-methylpyrimidin-4(3H)-one], the IC50 was found to be 1.69 ± 0.09 µM on recombinant human GSK-3β (setting [5]) and 1.89 ± 0.21 µM on AChE [1] (setting [6]).
The like results for `Cn1c(SCCNc2c3c(nc4ccc(Br)cc24)CCCC3)nc(-c2ccncc2F)cc1=O` [Compound 16e, 2-((2-((7-Bromo-1,2,3,4-tetrahydroacridin-9-yl)amino)ethyl)thio)-6-(3-fluoropyridin-4-yl)-3-methylpyrimidin-4(3H)-one] were, in that order, 0.94 ± 0.02 µM and 15.3 ± 0.9 µM.
For `Cn1c(NCCCCCCCNc2c3c(nc4cc(Cl)ccc24)CCCC3)nc(-c2ccncc2F)cc1=O` [Compound 7], the figures for the half-inhibitory concentration (IC50) with GSK-3β (previous hybrid compound 7) and at AChE [2] were 89 nM and 51 nM, respectively.
For `Cn1c(SCCNc2c3c(nc4ccc(Br)cc24)CCCC3)nc(-c2ccncc2)cc1=O` [Compound 16b, 2-((2-((7-Bromo-1,2,3,4-tetrahydroacridin-9-yl)amino)ethyl)thio)-3-methyl-6-(pyridin-4-yl)pyrimidin-4(3H)-one], the IC50 on recombinant human GSK-3β (setting [5]) was 38.5 ± 0.7 µM; at AChE [1] (setting [6]), 20 ± 1.5 µM.
In the same order, the values of `Cn1c(NCCSSCCNc2c3c(nc4ccc(Cl)cc24)CCCC3)nc(-c2ccncc2)cc1=O` [Compound 18c, 2-((2-((2-((7-Chloro-1,2,3,4-tetrahydroacridin-9-yl)amino)ethyl)disulfanyl)ethyl)amino)-3-methyl-6-(pyridin-4-yl)pyrimidin-4(3H)-one] are 0.42 ± 0.03 µM and 2.24 ± 0.13 µM.
On to `Cn1c(NCCSSCCNc2c3c(nc4ccc(Br)cc24)CCCC3)nc(-c2ccncc2)cc1=O` [Compound 18b, 2-((2-((2-((7-Bromo-1,2,3,4-tetrahydroacridin-9-yl)amino)ethyl)disulfanyl)ethyl)amino)-3-methyl-6-(pyridin-4-yl)pyrimidin-4(3H)-one], for which the IC50 at recombinant human GSK-3β (setting [5]) was determined as 0.37 ± 0.02 µM; at AChE [1] (setting [6]), 2.13 ± 0.11 µM.
With `Cn1c(SCCNc2c3c(nc4cc(Cl)ccc24)CCCC3)nc(-c2ccncc2)cc1=O` [Compound 16a, 2-((2-((6-Chloro-1,2,3,4-tetrahydroacridin-9-yl)amino)ethyl)thio)-3-methyl-6-(pyridin-4-yl)pyrimidin-4(3H)-one], the IC50 at recombinant human GSK-3β (setting [5]) came to 15.1 ± 0.9 µM; on AChE [1] (setting [6]), 2.3 ± 0.14 µM.
Regarding `Cn1c(NCCSSCCNc2c3c(nc4cc(Cl)ccc24)CCCC3)nc(-c2ccncc2)cc1=O` [Compound 18a, 2-((2-((2-((6-Chloro-1,2,3,4-tetrahydroacridin-9-yl)amino)ethyl)disulfanyl)ethyl)amino)-3-methyl-6-(pyridin-4-yl)pyrimidin-4(3H)-one], the “hepatotoxicity on HepG2 cells” value in the data set on HepG2 cells is given as “no significant hepatotoxicity”. For the same compound, the “toxicity to SH-SY5Y neuroblastoma cells” value in data set [3] is listed as “lack of toxicity; also recorded: no toxicity”. The IC50 on recombinant human GSK-3β (setting [5]) is 0.93 ± 0.08 µM; at AChE [1] (setting [6]), 0.047 ± 0.002 µM. In addition, the “inhibition mode against AChE” value against AChE [4] is “mixed type”.
Turning to `Cc1nc(-c2ccncc2)cc(=O)[nH]1` [Compound 5], in the data set with GSK-3β (pyrimidone lead compound 5), the IC50 was 3000 nM.
As for `Cn1c(SCCNc2c3c(nc4ccc(Cl)cc24)CCCC3)nc(-c2ccncc2F)cc1=O` [Compound 16f, 2-((2-((7-Chloro-1,2,3,4-tetrahydroacridin-9-yl)amino)ethyl)thio)-6-(3-fluoropyridin-4-yl)-3-methylpyrimidin-4(3H)-one], the IC50 at recombinant human GSK-3β amounted to 2.44 ± 0.06 µM; on AChE [1], 16.5 ± 0.8 µM.
On to `Cn1c(SCCNc2c3c(nc4ccc(Cl)cc24)CCCC3)nc(-c2ccncc2)cc1=O` [Compound 16c, 2-((2-((7-Chloro-1,2,3,4-tetrahydroacridin-9-yl)amino)ethyl)thio)-3-methyl-6-(pyridin-4-yl)pyrimidin-4(3H)-one], for which the IC50 on recombinant human GSK-3β (setting [5]) amounted to 2.28 ± 0.07 µM; on AChE [1] (setting [6]), 10.3 ± 0.7 µM.

These data come from article PMC11051924, “Design, Synthesis, and Biological Evaluation of Novel Tetrahydroacridin Hybrids with Sulfur-Inserted Linkers as Potential Multitarget Agents for Alzheimer’s Disease” (Molecules, 2024).
